From patent publication US6482410B1, “Cytotactin derivatives that stimulate attachment and neurite outgrowth, and methods of making same” (The Scripps Research Institute, priority 1994, dated 2002)
Blank lines part the entries; values can stand above or below the molecule they belong to.

Legend:
[1] = test system: neurons from chick forebrain; experiment: CNS neurite outgrowth, forebrain neurons, 7 hours; format: cell-based; settings: 7 hour growth period
Experimental: (§1) Dorsal root ganglia (DRG) cells or forebrain neurons were prepared for the cell attachment assays as follows. DRG from day 6 chicken embryos or forebrains from day 7 chicken embryos were dissected into HBSS. The tissue was pelleted by centrifugation and resuspended in CMF-HBSS and incubated at 37° C. for 10 minutes. The tissue was pelleted again and resuspended in CMF-HBSS containing 0.08% trypsin and allowed to trypsinize for 20 minutes at 37° C. An equal volume of DMEM/F12, 10% FCS, 20 ng/ml nerve growth factor (NGF) (for DRG cells only), 10 μg/ml gentamycin (10% medium) was added, and the tissue was pelleted and resuspended in 2 ml of the 10% medium. The cells were triturated with a fire-polished Pasteur pipette for 15 strokes, and the cells were washed and resuspended in 10 ml of 10% medium. DRG cells were plated in a 10 cm tissue culture dish and incubated for 1 hour at 37° C. in 5% CO2, to allow for attachment of contaminating fibroblasts.
(§2) After replating, the cells were harvested, pelleted and washed three times in DMEM/F12, 1% fetal calf serum (FCS), 20 ng/ml NGF (for DRG cells only), 10 μg/ml gentamycin (1% medium), and the number of cells determined using a hemocytometer. The DRG were resuspended to a density of 6×10^5 cells/ml in attachment buffer. The neurons were resuspended to a density of 2×10^4 cells/ml in 1% medium and added to substrates and placed at 37° C., 5% CO2 for 15 hours.
(§3) After the growth period, the dishes were gently rinsed with PBS to remove unbound cells, fixed with 1% glutaraldehyde, and viewed by phase contrast microscopy. Ten to forty cells were analyzed for each substrate. Cells were judged as neurite-bearing if the length of the processes was greater than one cell diameter. All cells with neurites were photographed with a 20× objective and total neurite length per neurite-bearing cell was derived from the photographic prints. Percentage of neuronal sprouting was calculated from at least six experiments. Neurite length was calculated from at least three experiments.
To investigate whether CNS neurons could also extend neurites on CT/TN and CT/TN fragments, neurons from chick forebrain were plated at low density on CT/TN, CT/TN fragments and polylysine, and analyzed for neurite outgrowth after a 7 hour growth period (a time period found to be optimal for stable neurite outgrowth from these cells). The lengths of neurites on substrates that supported sprouting were essentially the same for the forebrain neurons and were therefore not quantitated further.

[2] = test system: dorsal root ganglia (DRG) neurons; experiment: Two-dimensional neurite outgrowth assay, DRG, 15 hours; format: cell-based, chicken; settings: 15 hours
Experimental: as §1, §2, §3
This extensive neurite outgrowth after 40 hours made quantitation of the percentage of neurite-bearing cells and neurite length difficult. To analyze quantitatively the effect of CT/TN fusion proteins on DRG neurite outgrowth, DRG cells were therefore plated at low density on CT/TN or CT/TN fragments and analyzed after 15 hours in culture for the percentage of cells that sprouted neurites greater than one cell diameter and for the everage neurite length per neuron. These conditions enhanced the number of isolated cells and discouraged the cell-cell interactions and fasciculation that occurred in the long-term cultures.
The proteins used in the neurite outgrowth assays are the same as those used in the cell attachment assays. […] In addition, poly-L-lysine was adsorbed to the solid support. […] Any cells adhering to the solid support were examined for sprouting and neurite length as defined herein.
Proteins used in the neurite outgrowth assays were prepared as described in Example 5.A.2.
Dorsal root ganglia (DRG) from day 6 chicken embryos were prepared as described in Example 5.A.4. For the neurite outgrowth assays, the DRG were resuspended at a density of 2×10^4 cells/ml in 1% medium, added to solid support, and placed at 37° C. in 5% CO2 for 15 hours. After the attachment and growth period, the dishes were gently rinsed with PBS to remove unbound cells, fixed with 1% (v/v) glutaraldehyde, and viewed by phase contrast microscopy. Ten to thirty cells were analyzed for each adsorbed protein spot. Cells were judged as neurite-bearing if the length of the processes were greater than one cell diameter. All cells with neurites were photographed with a 40× objective and the total neurite length per neurite-bearing cell was derived from the prints. The percent of cells that were sprouting and the average neurite length was derived from six and three independent experiments, respectively. […]

[3] = test system: chicken fibroblast cell line SL29; experiment: Cell attachment assay, fibroblasts on protein-coated solid support; format: cell-based; settings: CT coated at 20 μg/ml, binding fragments at 0.75 μM, non-binding at three times that, 1 hour
Experimental: In the cell attachment assays, a single cell suspension was allowed to settle for a fixed period of time onto a solid support that has been coated with the different CT-derived proteins to be tested for cell attachment (Friedlander, et al., J. Cell Biol. 107: 2329-2340 (1988)). After removing the unbound and loosely bound cells by washing, the attachment and morphology of those cells remaining on the dish were analyzed.
Solid supports, consisting of a circular array of CT or CT:GST fusion proteins bound to a dish, were prepared as follows for the cell attachment assay.
For the initial study, non tissue-culture treated polystyrene plates (Falcon 1008) were spotted with 2 μl of a 0.5 to 1.5 μM solution of CT in PBS for 30 minutes to coat a specific area on the dish with CT. CT was isolated from chicken brain or from fibroblast culture supernatant as described in Crossin, PNAS 88: 11403-11407 (1991) and Hoffman et al., J. Cell Biol. 106: 519-532 (1988). CT was placed in a circular array near the center of the dish and incubated at 37° C. for 30 minutes. After CT had adsorbed to the dish, the central portion of the dish was washed once with 250 μl of 20% (w/v) BSA in PBS. Non-specific binding sites on the dish were then blocked with 250 μl of 20% (w/v) BSA in PBS by incubation for 2 to 3 hours at room temperature.
For the subsequent study with the CT:GST fusion proteins, non tissue-culture treated polystyrene plates (Falcon 1008) were spotted with 2 μl of a 0.5 to 1.5 μM solution of CT:GST fusion protein in PBS as prepared in Example 5.A.2 or GST in PBS for 30 minutes to coat a specific area on the dish with CT:GST fusion protein or GST. The proteins to be tested were placed in a circular array near the center of the dish and incubated at 37° C. for 30 minutes. After the proteins adsorbed to the dish, the central portion of the dish was washed once with 250 μl of 20% (w/v) BSA in PBS. Non-specific binding sites on the dish were then blocked with 250 μl of 20% (w/v) BSA in PBS by incubation for 2 to 3 hours at room temperature.
The chicken fibroblast cell line SL29 (ATCC CRL 1590) was grown to confluence in Dulbecco's Minimum Essential Medium (DMEM; Gibco-BRL, Gaithersburg, Mass.) with 10% (v/v) fetal calf serum (FCS; Gibco-BRL) with penicillin and streptomycin. The cells were passaged the night prior to the assay and seeded at a density of 1:2. Cells were harvested in calcium, magnesium-free Hank's balanced salt solution (CMF-HBSS, Gibco-BRL) with 20 mM Hepes buffer and 5 mM EDTA. Harvested cells were washed in attachment buffer (CMF-HBSS with 10 mM Hepes, 1 mM CaCl2, 1 mM MgCl2, 0.1 mM MnCl2, and 2% (w/v) bovine serum albumin (BSA)) three times. The number of cells was quantitated by counting the cells in a hemocytometer. The cells were resuspended in attachment buffer to a density of 6×10^5 cells/ml.
Chicken fibroblasts, DRG, and solid supports (dishes) coated with CT for use in the cell attachment assays were prepared as described in Examples 5.A.2-4, respectively. The chicken fibroblasts and DRG at a density of 6×10^5 cells/ml were added to the prepared dishes and incubated at 37° C. in 5% CO2 for 1 hour. The dishes were then washed three times in PBS with gentle swirling to remove unattached cells, fixed in 1% glutaraldehyde in PBS, and viewed by phase contrast microscopy. The number of bound cells was determined using a 10× objective with an eyepiece reticle. The number of cells was determined in four fields for each fusion protein dot as the number of cells bound per […]. CT was tested in triplicate. The number of cells bound for CT was expressed as the average of the twelve measurements±standard deviation […].
CT, coated at a concentration of 20 μg/ml, was used as a solid support for SL29 fibroblast attachment. […] Fragments of CT were generated using the pGEX fusion protein system, as described in Example 1. The cell attachment assay was performed essentially as described above for the cell attachment assay to intact CT. […]

[4] = biological target: β1 integrin on chicken SL29 fibroblasts and chick dorsal root ganglion neurons (chicken) (UniProt P07228); experiment: cell-based or functional assay
[5] = biological target: integrin receptor mediating RGD-dependent, not β1 integrin-mediated attachment of chicken SL29 fibroblasts and DRG cells; experiment: cell-based or functional assay
[6] = test system: DRG cells; experiment: DRG neurite outgrowth, 40 hour culture, morphology; format: cell-based, chicken; settings: DRG cells cultured 40 hours
Experimental: In order to assess the effect to the cell binding regions of CT/TN on the outgrowth of neurites from PNS neurons, DRG cells were cultured for 40 hours on popylysine, CTfn3, CTfn6, CTfg, and CTfn3-CTfn6 mixed substrates. The cultures were then fixed and the cell and neurite morphology was analyzed by phase contrast microscopy. The cells were plated on plastic substrates coated with the same concentrations of CTITN and fusion proteins used in the attachment assay.

Chain of UniProt P07228 (P07228 25-803, form in doubt): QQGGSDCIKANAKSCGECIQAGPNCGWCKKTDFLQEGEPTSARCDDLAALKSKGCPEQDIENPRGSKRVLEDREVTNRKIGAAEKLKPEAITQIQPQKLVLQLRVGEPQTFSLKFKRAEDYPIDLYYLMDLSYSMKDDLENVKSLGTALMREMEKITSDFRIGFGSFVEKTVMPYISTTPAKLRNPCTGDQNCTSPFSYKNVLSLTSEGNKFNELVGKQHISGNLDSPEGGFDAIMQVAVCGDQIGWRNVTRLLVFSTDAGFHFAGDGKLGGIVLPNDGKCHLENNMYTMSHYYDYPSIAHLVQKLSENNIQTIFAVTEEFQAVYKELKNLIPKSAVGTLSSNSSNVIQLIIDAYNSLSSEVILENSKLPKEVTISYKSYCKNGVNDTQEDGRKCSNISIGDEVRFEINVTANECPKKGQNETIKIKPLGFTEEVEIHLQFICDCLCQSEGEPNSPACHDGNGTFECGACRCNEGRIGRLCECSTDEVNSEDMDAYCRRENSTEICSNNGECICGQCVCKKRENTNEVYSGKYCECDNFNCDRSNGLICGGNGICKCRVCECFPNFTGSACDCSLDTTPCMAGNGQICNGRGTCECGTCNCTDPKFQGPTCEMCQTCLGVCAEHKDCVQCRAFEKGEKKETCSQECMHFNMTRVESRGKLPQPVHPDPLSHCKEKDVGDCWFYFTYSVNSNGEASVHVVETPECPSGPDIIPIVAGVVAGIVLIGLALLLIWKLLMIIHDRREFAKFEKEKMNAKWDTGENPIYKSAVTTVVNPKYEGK

Molecule: CT: intact cytotactin isolated from chicken brain or fibroblast culture supernatant
forebrain cell attachment [1]: low level of attachment
forebrain neuron sprouting versus polylysine [1]: did not support sprouting of neurites
% Sprouting ([1]; Table 4, FB (forebrain) neurons): 0%
percentage of DRG cells that sprouted neurites ([2]; DRG): About 50%
percentage of DRG cells that sprouted neurites ([2]; DRG, listed as CT/TN): 30%
% Sprouting ([2]; Table 4, DRG, neurites greater than one cell diameter): 30 ± 3 %
Neurite Length ([2]; Table 4, DRG, per neurite-bearing cell): 332 ± 177 microns
Percent Sprouting ([2]; Table 5, DRG, six experiments): 30 ± 3
Neurite Length (in microns) ([2]; Table 5, DRG, three experiments): 332 ± 177 microns
SL29 fibroblast attachment to coated substrate (words) [3]: readily attached
SL29 fibroblast attachment to coated substrate (words) ([3]; listed as CT/TN): bound well

inhibition of SL29 fibroblast binding to CTfn5-6 by mAb JG22 [4]: 77%
Molecule: CTfn5-6 fusion protein spanning the fifth and sixth FN type III repeats of chicken cytotactin (from UniProt P08515 1-218)

inhibition of SL29 fibroblast attachment to intact CT/TN by GRGDTP (1 mg/ml) [5]: 33%
inhibition of cell attachment to intact CT by soluble GRGDSP (1 mg/ml) [5]: 73%
inhibition of cell attachment to intact CT by soluble GRGDTP (1 mg/ml) [5]: 70%
Molecule: intact cytotactin (CT) isolated from chicken brain or from fibroblast culture supernatant (from UniProt P10039 34-1808) (ligand)

decrease in DRG cell attachment to CTfg after preincubation with JG22 [4]: 19%
Molecule: CTfg CT:GST fusion protein (fibrinogen domain of chicken cytotactin fused to GST) (from UniProt P10039 1568-1808)

B1: CTfn3-6: single construct containing fibronectin type III repeats III and VI, SEQ ID NO 29 (protein, listed as Gallus gallus)
chain: LDAPSQIEAKDVTDTTALITWSKPLAEIEGIELTYGPKDVPGDRTTIDLSEDENQYSIGNLRPHTEYEYEVTLISRRGDMESDPAKEVFVTVVGSPKGISFSDITENSARVSWTPPRSRVDSYRVSYVPITGGTPNVVTVDGSKTRTKLVKLVPGVDYNVNIISVKGFEESE
neurite and cell morphology after 40 hours [6]: much longer and less fasciculated
neurite promoting activity on DRG cells ([2]; DRG, low density): significant increase both in the percentage of neurite-bearing cells and in neurite elongation
